Experiment [1] relates to H3K27me3 and H3K27ac in melanoma cells (B16F10, PM). Nature of the experiment: Western blot of epigenetic modifications of H3. It is filed as cell-based, mouse. The procedure:
The lysis buffer (50 mM Tris pH 7.4, 1% Triton X-100, 0.5 mM EDTA, 0.5 mM EGTA, 150 mM NaCl, 10% glycerol, 1 mM phenylmethylsulfonyl fluoride and complete protease inhibitor cocktail (Roche)) were used to prepare the whole-cell lysates, which was followed by homogenization and centrifuge (14,000 rpm for 15 min at 4 °C). Pierce BCA Protein Assay Kit (Thermo Fisher Scientific) was used to detect protein concentration. After SDS-PAGE separation and PVDF membrane (BIO-RAD) transfer of the proteins, the specific primary was probed at 4 °C for overnight, before incubated with corresponding horseradish peroxidase (HRP)-conjugated 2nd antibodies. Pierce ECL Western Blotting Substrate (Thermo Fisher Scientific) was used for protein detection. Antibodies were: anti-Mi-2β(1:1000), anti-EZH2 (ab70469, Abcam) (1:1000), anti-β-actin-peroxidase antibody (AC15) (1:5000) and anti-rabbit secondary antibody (A-4914) (1:10,000). Antibody information have shown in Supplementary data 3.
Supplementary Figure 10. […] A mouse survival curve is shown, with log-rank test for mouse survival P value. b,c The epigenetic modifications of H3 (H3K27ac, H3K27me1 and H3K27me3) were measured in B16F10 cells stimulated with GSK126 or Z36-MP5 as indicated (n = 3, independent experiments). d The amount of secreted Cxcl9 and Cxcl10 was measured by ELISA in […]

Experiment [2] concerns the target recombinant purified human Mi-2β protein (Homo sapiens, UniProt Q14839). Nature of the experiment: FRET-based nucleosome repositioning assay (EpiDyne-FRET). The following applies: for IC50: IC50 against Mi-2β.

The structures appear in SMILES notation.

Sequence of recombinant purified human Mi-2β protein (Q14839 whole entry): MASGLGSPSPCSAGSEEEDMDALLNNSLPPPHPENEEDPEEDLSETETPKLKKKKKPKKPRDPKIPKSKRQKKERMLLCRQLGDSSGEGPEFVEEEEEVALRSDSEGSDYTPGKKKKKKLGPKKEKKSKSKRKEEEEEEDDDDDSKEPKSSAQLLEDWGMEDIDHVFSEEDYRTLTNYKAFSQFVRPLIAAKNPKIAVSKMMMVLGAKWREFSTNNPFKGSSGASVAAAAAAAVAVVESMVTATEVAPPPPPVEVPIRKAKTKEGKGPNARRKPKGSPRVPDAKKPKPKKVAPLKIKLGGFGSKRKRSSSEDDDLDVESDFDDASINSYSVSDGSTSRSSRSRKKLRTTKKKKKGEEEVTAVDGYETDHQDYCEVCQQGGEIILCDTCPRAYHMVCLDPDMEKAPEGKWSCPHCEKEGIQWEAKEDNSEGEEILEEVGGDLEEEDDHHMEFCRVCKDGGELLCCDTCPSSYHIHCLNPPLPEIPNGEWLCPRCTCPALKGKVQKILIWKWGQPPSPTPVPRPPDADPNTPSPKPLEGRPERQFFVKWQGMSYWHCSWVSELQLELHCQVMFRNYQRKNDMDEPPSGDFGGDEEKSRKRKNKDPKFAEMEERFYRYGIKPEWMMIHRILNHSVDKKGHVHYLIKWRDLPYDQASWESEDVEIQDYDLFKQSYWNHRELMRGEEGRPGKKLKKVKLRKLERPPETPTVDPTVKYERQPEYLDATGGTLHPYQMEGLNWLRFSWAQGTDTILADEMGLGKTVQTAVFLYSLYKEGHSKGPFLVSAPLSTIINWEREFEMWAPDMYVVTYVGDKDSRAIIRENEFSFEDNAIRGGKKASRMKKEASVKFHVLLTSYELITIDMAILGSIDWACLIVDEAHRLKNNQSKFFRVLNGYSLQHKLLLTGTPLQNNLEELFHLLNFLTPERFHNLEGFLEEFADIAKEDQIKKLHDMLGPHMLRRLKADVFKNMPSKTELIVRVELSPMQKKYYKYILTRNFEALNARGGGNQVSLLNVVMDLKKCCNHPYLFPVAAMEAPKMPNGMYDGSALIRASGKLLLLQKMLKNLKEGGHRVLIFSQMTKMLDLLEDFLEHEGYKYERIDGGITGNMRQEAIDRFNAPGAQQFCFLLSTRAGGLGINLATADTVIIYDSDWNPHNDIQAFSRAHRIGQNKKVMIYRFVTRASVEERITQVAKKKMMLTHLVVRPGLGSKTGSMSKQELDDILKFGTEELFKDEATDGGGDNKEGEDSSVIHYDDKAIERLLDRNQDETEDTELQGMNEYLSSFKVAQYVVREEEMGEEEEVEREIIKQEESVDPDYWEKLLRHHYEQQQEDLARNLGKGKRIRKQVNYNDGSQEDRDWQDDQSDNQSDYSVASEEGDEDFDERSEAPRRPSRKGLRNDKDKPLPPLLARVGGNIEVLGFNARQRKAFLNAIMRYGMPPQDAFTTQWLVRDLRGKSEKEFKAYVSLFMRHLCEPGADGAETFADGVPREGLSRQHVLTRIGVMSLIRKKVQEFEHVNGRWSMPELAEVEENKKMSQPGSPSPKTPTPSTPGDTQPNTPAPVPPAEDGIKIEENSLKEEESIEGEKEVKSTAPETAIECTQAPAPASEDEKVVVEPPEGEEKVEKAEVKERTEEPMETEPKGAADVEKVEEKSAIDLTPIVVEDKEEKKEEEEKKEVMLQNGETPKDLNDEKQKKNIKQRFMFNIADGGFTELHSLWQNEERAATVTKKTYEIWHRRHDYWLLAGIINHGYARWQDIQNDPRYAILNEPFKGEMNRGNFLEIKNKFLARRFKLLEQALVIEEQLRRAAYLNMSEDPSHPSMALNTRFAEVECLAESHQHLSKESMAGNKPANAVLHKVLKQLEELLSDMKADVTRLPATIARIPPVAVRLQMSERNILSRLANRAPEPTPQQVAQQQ

As for `Cn1c(=O)[nH]c2ccc(-c3cccc(C(=O)NC4CCn5ccnc5C4)c3)cc21` (stereo not shown) [Z36-MP5], the H3K27ac level entry in experiment [1] (PM cells, compared to GSK126 treatment) is “only slightly increased”. Also, the “level of H3K27me3” value in experiment [1] (melanoma cells) is on record as “repressed”. For the same molecule, the “inhibition of Mi-2β ATPase” value in experiment [2] (1 µM) is on record as “completely inhibits”. Besides, the IC50 (as a rule, the point on the concentration scale where inhibition reaches its midpoint) in experiment [2] (ATP 10 μM) stood at 79 ± 13 nM; in experiment [2] (ATP 30 μM), 198 ± 33 nM; in experiment [2] (ATP 100 μM), 576 ± 86 nM; in experiment [2] (ATP 300 μM), 1660 ± 358 nM; in experiment [2] (Mi-2β chromatin modulatory activity, n = 3), 82 ± 13 nM. Besides, in experiment [2] (IC50 increased with ATP 10–300 µM), the mode of inhibition entry was “ATP-competitive inhibitor”. Further, the “potency relative to the original compound Z36” value in experiment [2] (ratio of IC50 values) is reported as ~ 85 fold.

These data come from article PMC10924921, “Mi-2β promotes immune evasion in melanoma by activating EZH2 methylation” (Nature Communications, 2024).
